Data taken from patent publication US5688767A, “Treatment of endotoxin-associated disorders with cationic peptides” (priority 1996, dated 1997).
≈ marks a conversion by molar mass, not a printed value.

Tests used:
S. typhimurium = assay: microbe, parasite or virus in culture; format: cell-based, Salmonella typhimurium
Description: The minimum inhibitory concentrations of (MIC) of CEME, CEMA and melittin were determined for a number of different bacteria (Table 2). Briefly, cells were grown overnight at 37° C. in LB-S (Luria broth without any salt supplement) and diluted one in 10,000 in the same medium to give concentrations of about 10^4 to 10^5 CFU/ml. The broth dilutions were set up in a 96 well microtiter plate by putting 200 μl of LB-S containing the initial concentration of antibiotic or compound in column 1 and 100 μl of the same medium in columns 2-12. The compounds were diluted by taking 100 μl of broth from column 1 and mixing it with column 2, resulting in a one in two dilution. This was continued to column 10. Finally, 10 μl of bacteria were pipetted into columns 1-11, and the plates incubated overnight at 37° C. The next day the plates were scored for growth in the wells, and the MIC determined.
Bacteria included the Bort strain of E. coli (Bortolussi, et al., Inf. Immun., 25:293, 1979) that was originally derived from a case of neonatal meningitis, and which is therefore considered a relevant pathogenic strain to study, and the 0111:B4 strain of E. coli (kindly provided by Dr. D. Morrison) which is a standard source of endotoxin. (Kelly, et al., Inf. Immun., 59:4491, 1991). In addition, P. aeruginosa PA01 strain H103, P. aeruginosa M2, P. aeruginosa K799, Eschericha coli UB 1005, Enterobacter cloacae 218S, Salmonella typhimurium MS7953s, Klebsiella pneumoniae ATCC 13883, Xanthomonas maltophilia ATCC 13637, and Acinetobacter calcoacetious 8193 were employed. LPS was obtained from E. coli Bort by the technique of Westphal and Jann, (Westphal, et al., Acad. Press, Inc. NY., 5:83) and from P. aeruginosa H103 by the method of Darveau and Hancock, (Darveau, et al., J. Bacteriol, 155:831, […]). E. coli 0111:B4 LPS was purchased from Sigma.

[1] = test system: LPS-induced TNF in RAW 264.7 cells; assay: Preincubation of RAW cells with peptide, wash, and supernatant transfer before LPS; format: cell-based, murine; conditions: for depression of TNF induction by aspirated medium containing CEMA: fresh RAW cells
Description: In order to determine how rapidly CEMA reduced LPS-induced TNF production, E. coli 0111:B4 or Bort LPS was added at time 0 to RAW macrophages. CEMA or Polymyxin B was added at time 0, 30 and 60 minutes. Levels of TNF were measured after 6 hours. […] To confirm that CEMA was acting on LPS rather than directly upon macrophage cell lines, 20 μg of CEMA was added to RAW cells and incubated for 60 minutes prior to aspiration of the medium and washing the cells 3 times with HBSS (Hanks Buffered Salt Solution).
To ensure that the cationic peptides were interacting with the LPS rather than the cell lines, […], and after incubation at 37° C. in 5% CO2 for 60 minutes, the supernatant was removed and added to a second well of untreated RAW 264.7 cells. Fresh medium was added to the peptide-treated RAW cells and 100 ng/ml of LPS was then added to both the peptide-treated cells and those reconstituted with supernatant, and these wells assayed for TNF production after 6 hours incubation at 37° C. in 5% CO2.
Both CEME and CEMA were reproducibly able to inhibit the induction, by E. coli 0111:B4 LPS, of TNF secretion by RAW 264.7 cells (Table 10). […] Virtually the same results were obtained with E. coli Bort LPS and in preliminary experiments with P. aeruginosa strain H 103 LPS. […] In contrast the supernatants from these preincubations (which presumably contained the peptides) when added to fresh RAW 264.7 cells, were able to suppress the ability of these cells to induce TNF in response to LPS stimulation, producing only 4451 units per ml;.

P. aeruginosa strain M2 = assay: Survival of neutropenic mice challenged intraperitoneally with bacteria; format: in vivo, Pseudomonas aeruginosa
Description: To measure the anti-bacterial effect of peptides, a similar strategy was employed. Female CD-1 mice were rendered neutropenic with 3 injections of cyclophosphamide as described previously. (Cryz, S. J., Inf. Immun., 39(2): 1067, 1983) An […] dose of Pseudomonas aeruginosa strain M2 (approximately 10^2 organisms per mouse) was injected intra peritoneally and in the single dose experiments, 100 μl of PBS or sterile water containing 200 μg (8.7 mg/kg) of a cationic peptide was injected immediately afterwards. […] Survival was recorded at 24 and 48 hours.

RAW 264.7 cells = assay: RAW cell viability by Trypan blue exclusion; format: cell-based, murine; conditions: up to 50 μg
[2] = single dose 200 μg (8.7 mg/kg) i.p.
[3] = two injections at 2 hours and 12 hour after P. aeruginosa

## CC[C@H](C)[C@H](NC(=O)CNC(=O)[C@@H](NC(=O)[C@H](CCCCN)NC(=O)[C@H](CCCCN)NC(=O)[C@H](Cc1ccccc1)NC(=O)[C@H](CC(C)C)NC(=O)[C@H](CCCCN)NC(=O)[C@H](Cc1c[nH]c2ccccc12)NC(=O)[C@@H](N)CCCCN)[C@@H](C)CC)C(=O)NCC(=O)N[C@@H](C)C(=O)N[C@H](C(=O)N[C@@H](CC(C)C)C(=O)N[C@@H](CCCCN)C(=O)N[C@H](C(=O)N[C@@H](CC(C)C)C(=O)N[C@H](C(=O)N[C@H](C(=O)NCC(=O)N[C@@H](CC(C)C)C(=O)N1CCC[C@H]1C(=O)N[C@@H](C)C(=O)N[C@@H](CC(C)C)C(=O)N[C@@H](CCCCN)C(=O)N[C@@H](CC(C)C)C(=O)N[C@H](C(=O)N[C@@H](CCCCN)C(=O)O)[C@@H](C)O)[C@@H](C)O)[C@@H](C)O)C(C)C)C(C)C [CEMA]
S. typhimurium; Salmonella typhimurium MS7953s
  MIC: 4 µg/mL (≈ 1.3 µM)
S. typhimurium; strain C587, Parent of C590
  MIC: 5.6 µg/mL (≈ 1.83 µM)
S. typhimurium; strain C590, Defensin sensitive
  MIC: 1.4 µg/mL (≈ 0.457 µM)
[1]; 20 μg CEMA preincubated 60 minutes, washed 3 times, then 10 ng or 100 ng of LPS
  TNF induction in washed RAW cells: 14,000-20,000 Units of TNF per ml
[1]; CEMA 20 μg/ml preincubated 60 minutes, supernatant removed, fresh medium and 100 ng/ml E. coli 0111:B4 LPS
  TNF induction in peptide-preincubated RAW 264.7 cells: 19062 Units per ml
[1]; 10 ng E. coli Bort LPS
  depression of TNF induction by aspirated medium containing CEMA: 98.5%
[1]; 100 ng E. coli Bort LPS
  depression of TNF induction by aspirated medium containing CEMA: 75%
[1]; supernatants from CEMA 20 μg/ml preincubations, LPS stimulation
  TNF induction in fresh RAW 264.7 cells given preincubation supernatants: 4451 units per ml
P. aeruginosa strain M2; [2]
  Survival (%): 43.3%
  Survival (survivors/total): 13/30
P. aeruginosa strain M2; [3]
  Survival (%): 55.0%
  Survival (survivors/total): 11/20
RAW 264.7 cells
  RAW cell viability: no apparent decrease
